Measured values: publication PMC6130634 (Pharmaceutical Biology, 2017)

Tests used:
[1] = Stability of ChA in beagle faeces under various storage conditions; assay type: in vitro ADME
[2] = Oral pharmacokinetics of ChA in beagle plasma; assay type: in vivo, beagles; details: dog, 60 mg/kg
[3] = Stability of ChA in beagle urine under various storage conditions; assay type: in vitro ADME

time ChA was stable ([1]; faeces, room temperature): ≥ 6 h
time ChA was stable ([1]; faeces, −70 °C): ≥ 170 h
time ChA was stable ([1]; processed faeces, 4 °C): at least 8 h
AUC(0-inf) [2]: 6320 ± 1850 ng·h/mL
AUC(0-t) [2]: 5590 ± 1410 ng·h/mL
Cmax [2]: 2350 ± 483 ng/mL
Tmax [2]: 1.86 ± 0.499 h
half-life [2]: 0.911 ± 0.187 h
time ChA was stable ([3]; processed urine, 4 °C): at least 8 h
time ChA was stable ([3]; urine, room temperature): ≥ 6 h
time ChA was stable ([3]; urine, −70 °C): at least 20 d
Structure (SMILES): O=C(/C=C/c1ccc(O)c(O)c1)O[C@@H]1C[C@](O)(C(=O)O)C[C@@H](O)[C@H]1O [ChA, Chlorogenic acid]
